Key:
[1] = test system: picornaviruses (CVB1, HRV-A2, HRV-A23, EV-68); test: Anti-picornavirus cytopathic effect (CPE) reduction assay on HeLa H1 cells; assay type: cell-based; conditions: Enterovirus B, HeLa H1, 48 h, HeLa H1 cells, 48 h, category from averaging the EC50 values from four picornaviruses (CVB1, HRV-A2, HRV-A23, EV68); read-out: EC50 values of the compounds determined in the anti-picornavirus assay
Summary of the method: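 HeLa H1 cells pre-treated 2 h with serially diluted compound in DMEM/2% FBS, then infected at an MOI giving full CPE in 2 days. After 48 h at 37° C, viability read by CellTiterBlue fluorescence (ex 560/em 590 nm), normalised to infected and uninfected vehicle controls; EC50 by non-linear regression, category from mean of four viruses.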

PLA2G16 = molecular target: T1, PLA2G16 (Homo sapiens, UniProt P53816); test: Enzyme activity assay for PLA2G16 (Red/Green BODIPY PC-A2 fluorescence); assay type: biochemical; conditions: His-tagged PLA2G16, 4 min pre-incubation, 2 nM to 50 μM; read-out: IC50 values of the compounds determined in the enzyme activity assay for PLA2G16
T1 construct: Hexa-His (N); made in house; host or cells: E. coli BL21(DE3)
T1 sequence (P53816 1-162): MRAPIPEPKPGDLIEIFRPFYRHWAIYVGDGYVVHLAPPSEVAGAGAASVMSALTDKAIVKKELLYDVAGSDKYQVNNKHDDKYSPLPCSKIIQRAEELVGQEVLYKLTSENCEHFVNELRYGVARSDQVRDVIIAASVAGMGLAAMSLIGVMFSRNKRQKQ
Summary of the method: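 N-His-tagged human PLA2G16 from E. coli, Ni-NTA purified. Pre-incubated 4 min with compound (2 nM–50 μM final) in pH 8.5 Tris/NaCl buffer with 5 mM glutathione, then BODIPY PC-A2 in DOPC/DOPG/cholesterol vesicles added. Fluorescence (ex 480/em 530 nm) increase over 10 min taken as activity; IC50 by non-linear regression.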

`CC(NC(=O)Cc1ccccc1)C(=O)C(=O)NCC1CC1` (centres unmarked) [FP 167, N-(Cyclopropylmethyl)-2-oxo-3-(2-phenylacetamido)butanamide] gave an EC50 [1] greater than 10 µM and an IC50 (PLA2G16) of less than 1 µM.
Compound `CC(NC(=O)c1ccccc1Cl)C(=O)C(=O)NCC1CC1` (centres unmarked) [FP 169, 3-[(2-Chlorophenyl)formamido]-(cyclopropylmethyl)-2-oxobutanamide] has an EC50 [1] of 1 to 10 µM and an IC50 (PLA2G16) of less than 1 µM.
With `C[C@@H]1CC(=O)N(Cc2ccccc2)[C@H]1C(=O)C(=O)NC1CC1` (single isomer, unassigned) [FP 340] the EC50 [1] was less than 1 µM and the IC50 (PLA2G16) was less than 1 µM.
`O=C(NCC1CC1)C(=O)C1CCC(=O)N1CC1CCCC1` (centres unmarked) [FP 280, 2-[1-(Cyclopentylmethyl)-5-oxopyrrolidin-2-yl]-N-(cyclopropylmethyl)-2-oxoacetamide] showed an EC50 [1] of less than 1 µM and an IC50 (PLA2G16) of less than 1 µM.
`O=CN(Cc1ccccc1)C(C(=O)C(=O)NCC1CC1)C1CC1` (centres unmarked) [FP 67, 3-(N-Benzylformamido)-3-cyclopropyl-N-(cyclopropylmethyl)-2-oxopropanamide] gave an EC50 [1] of less than 1 µM and an IC50 (PLA2G16) of less than 1 µM.
In the case of `NC(=O)c1cccc(CN2C(=O)CCC2C(=O)C(=O)NCC2CC2)c1` (centres unmarked) [FP 250, 3-[(2-{[(Cyclopropylmethyl)carbamoyl]carbonyl}-5-oxopyrrolidin-1-yl)methyl]benzamide], the EC50 [1] is reported as 1 to 10 µM and the IC50 (PLA2G16) is reported as less than 1 µM.
In the case of `CC(C(=O)C(=O)NCC1CCCCC1)N(C=O)CC(F)(F)F` (centres unmarked) [FP 50, N-(Cyclohexylmethyl)-2-oxo-3-[N-(2,2,2-trifluoroethyl)formamido]butanamide], the EC50 [1] is reported as less than 1 µM and the IC50 (PLA2G16) is reported as less than 1 µM.
Compound `Cc1ccccc1C(=O)NC(C)C(=O)C(=O)NCC1CC1` (centres unmarked) [FP 156, N-(Cyclopropylmethyl)-3-[(2-methylphenyl)formamido]-2-oxobutanamide] has an EC50 [1] of 1 to 10 µM and an IC50 (PLA2G16) of less than 1 µM.
`N#Cc1ccc(CN2C(=O)CCC2C(=O)C(=O)NCC2CC2)cc1` (centres unmarked) [FP 233, 2-{1-[(4-Cyanophenyl)methyl]-5-oxopyrrolidin-2-yl}-N-(cyclopropylmethyl)-2-oxoacetamide] showed an EC50 [1] of 1 to 10 µM and an IC50 (PLA2G16) of less than 1 µM.
In the case of `O=C(NCc1ccccn1)C(=O)C1CCC(=O)N1Cc1ccccc1` (centres unmarked) [FP 230, 2-(1-Benzyl-5-oxopyrrolidin-2-yl)-2-oxo-N-[(pyridin-2-yl)methyl]acetamide], the EC50 [1] is reported as greater than 10 µM and the IC50 (PLA2G16) is reported as less than 1 µM.
For `CC(C)CC(C(=O)C(=O)NCC1CC1)N(C=O)CC1CCCO1` (centres unmarked) [FP 74, N-(Cyclopropylmethyl)-5-methyl-2-oxo-3-{N[(oxolan-2-yl)methyl]formamido} hexanamide], the EC50 [1] was 1 to 10 µM and the IC50 (PLA2G16) was less than 1 µM.
`O=C(NCC1CCOCC1)C(=O)C1CCC(=O)N1Cc1ccc(Cl)cc1` (centres unmarked) [FP 235, 2-{1-[(4-Chlorophenyl)methyl]-5-oxopyrrolidin-2-yl}-N-[(oxan-4-yl)methyl]-2-oxoacetamide] showed an EC50 [1] of 1 to 10 µM and an IC50 (PLA2G16) of less than 1 µM.
`CC(C)CNC(=O)C(=O)C(C)N(C=O)Cc1ccccc1` (centres unmarked) [FP 47, 3-(N-Benzylformamido)-N-(2-methylpropyl)-2-oxobutanamide] was tested, and the EC50 [1] was 1 to 10 µM and the IC50 (PLA2G16) was less than 1 µM.
`CC1(C)CC(=O)N(Cc2ccccc2)C1C(=O)C(=O)NC1CC1` (centres unmarked) [FP 349, 2-(1-Benzyl-3,3-dimethyl-5-oxopyrrolidin-2-yl)-N-cyclopropyl-2-oxoacetamide] showed an EC50 [1] of 1 to 10 µM and an IC50 (PLA2G16) of less than 1 µM.
`CC(NS(=O)(=O)c1ccc(Cl)cc1)C(=O)C(=O)NCC1CC1` (centres unmarked) [FP 215, 3-(4-Chlorobenzenesulfonamido)-N-(cyclopropylmethyl)-2-oxobutanamide] showed an EC50 [1] of 1 to 10 µM and an IC50 (PLA2G16) of less than 1 µM.
In the case of `CC(C(=O)C(=O)NC1CC1)N(C=O)C1CCCCC1` (centres unmarked) [FP 42, 3-(N-Cyclohexylformamido)-N-cyclopropyl-2-oxobutanamide], the EC50 [1] is reported as 1 to 10 µM and the IC50 (PLA2G16) is reported as less than 1 µM.
`CC(C)OCCCNC(=O)C(=O)[C@H]1CCC(=O)N1Cc1ccccc1` [FP 301, 2-[(2R)-1-Benzyl-5-oxopyrrolidin-2-yl]-2-oxo-N-[3-(propan-2-yloxy)propyl]acetamide] gave an EC50 [1] of less than 1 µM and an IC50 (PLA2G16) of less than 1 µM.
Work on `CC(C)NC(=O)C(=O)C(C)N(C=O)C1CCCCC1` (centres unmarked) [FP 36, 3-(N-Cyclohexylformamido)-2-oxo-N-(propan-2-yl)butanamide] yielded an EC50 [1] of 1 to 10 µM and an IC50 (PLA2G16) of less than 1 µM.
In the case of `CC(C)NC(=O)C(=O)C(C)OCc1ccccc1` (centres unmarked) [FP 136, 3-(Benzyloxy)-2-oxo-N-(propan-2-yl)butanamide], the EC50 [1] is reported as less than 1 µM and the IC50 (PLA2G16) is reported as less than 1 µM.
`O=C(NCc1cccc(=O)[nH]1)C(=O)C1CCC(=O)N1Cc1ccc(Cl)cc1` (centres unmarked) [FP 247, 2-{1-[(4-Chlorophenyl)methyl]-5-oxopyrrolidin-2-yl}-2-oxo-N-[(6-oxo-1,6-dihydropyridin-2-yl)methyl]acetamide] was tested, and the EC50 [1] was 1 to 10 µM and the IC50 (PLA2G16) was less than 1 µM.
For `CC(C)C(=O)N1CCC(CN(C=O)C(C)C(=O)C(=O)NCC2CCCCC2)CC1` (centres unmarked) [FP 78, N-(Cyclohexylmethyl)-3-(AN{[1-(2-methylpropanoyl)piperidin-4-yl]methyl}formamido)-2-oxobutanamide], the EC50 [1] was greater than 10 µM and the IC50 (PLA2G16) was 1 to 10 µM.
With `CC(C(=O)C(=O)NCC1CCCCC1)N(C=O)c1cc[nH]c(=O)c1` (centres unmarked) [FP 192, N-(Cyclohexylmethyl)-2-oxo-3-[N-(2-oxo-1,2-dihydropyridin-4-yl)formamido]butanamide] the EC50 [1] was greater than 10 µM and the IC50 (PLA2G16) was less than 1 µM.
In the case of `O=C(NCCN1CCCCC1=O)C(=O)[C@H]1CCC(=O)N1Cc1ccccc1` [FP 292, 2-[(2R)-1-Benzyl-5-oxopyrrolidin-2-yl]-2-oxo-N-[2-(2-oxopiperidin-1-yl)ethyl]acetamide], the EC50 [1] is reported as 1 to 10 µM and the IC50 (PLA2G16) is reported as less than 1 µM.
`O=C(NCC1CCCCC1)C(=O)C1CCC(=O)N1Cc1nccs1` (centres unmarked) [FP 311] showed an EC50 [1] of less than 1 µM and an IC50 (PLA2G16) of less than 1 µM.
With `O=C(NC1CCCC1)C(=O)C1CCC(=O)N1CC1CC1` (centres unmarked) [FP 254, N-Cyclopentyl-2-[1-(cyclopropylmethyl)-5-oxopyrrolidin-2-yl]-2-oxoacetamide] the EC50 [1] was 1 to 10 µM and the IC50 (PLA2G16) was less than 1 µM.

— patent US11091428B2 (HAPLOGEN GMBH, priority 2016, dated 2021)
